We go through 15 molecules from EP1724268A1, “COMPOUND HAVING TGF-BETA INHIBITORY ACTIVITY AND PHARMACEUTICAL COMPOSITION CONTAINING SAME” (KIRIN BEER KABUSHIKI KAISHA, priority 2004, dated 2005).

For this assay, the system named is TGFβ signal. Description: TGFβ signal inhibitory activity, (SBE)4-Luc reporter in A549 cells (Test Examples 1A and 1B). Particulars: for TGFβ inhibition rate, %: compounds of Reference Examples (Test Example 1B); for inhibition at 3 µM / inhibition at 10 µM / inhibition at 1 µM: Homo sapiens, A549, TGFβ-1 2 ng/ml, 4 hr, Table 1A, read-out: TGFβ inhibition rate, %; for inhibition at 3 µM: test compound 3 µM; for inhibition at 10 µM: test compound 10 µM; for inhibition at 1 µM: test compound 1 µM. Type of assay: cell-based, human. On the procedure: Test Example 1A: TGFβ signal inhibitory activity (in vitro test) The compounds according to the present invention was evaluated for TGFβ signal inhibitory activity according to the method described in J. Boil .Chem., 273, 21145-21152 (1998). Specifically, a plasmid having four tandem binding sequences of Smad3, a TGF-beta signal transducer, to the upstream of a luciferases gene were used as a reporter plasmid ((SBE)4-Luc) to detect TGF-beta signal, This reporter gene was introduced into human pulmonary carcinoma epithelial cells (A549) (available from ATCC) to establish a stable cell line. A test compound and TGFβ-1 (2 ng/ ml) were added to the cells, and the mixture was cultured for 4 hr. In this case, the compounds according to the present invention synthesized in the Examples were used as the test compound. After the culture, the luciferase activity of the cells were measured by chemiluminescence (Steady Glo (trademark) luciferase assay system, available from Promega). Likewise, the luciferase activity was measured as a control against the culture of cells with the addition of TGFβ only and the culture of cells without the addition of both TGFβ and the test compound.
The TGFβ inhibition (%) was calculated by the following equation, based on the measurement results. TGFβ inhibition(%) = (A-B)/(A-C) × 100 [formula] wherein • A: luciferase activity with the addition of TGFβ1 and without the addition of test compound (relative luciferase unit), • B: luciferase activity with the addition of both TGFβ1 and test compound (relative luciferase unit), and • C: luciferase activity without the addition of both TGFβ1 and test compound (relative luciferase unit).
The test was carried out for each of test compound at the concentrations of 3 µM and 10 µM. For certain test compounds, the test was further carried out for test compound at the concentration of 1 µM.
For the compounds of Reference Examples, the TGFβ signal inhibitory activity was evaluated in the same manner as in Test Example 1A.

Regarding “4-(6-Fluoro-2-iodo-pyridin-3-yloxy)-6,7-dimethoxy-quinoline [Compound r211]”, the “TGFβ inhibition rate, %” value turned out to be 87% (3 µM) and 100% (10 µM).
For `Cc1cc(Oc2ccnc3ccccc23)c(-c2ccccn2)nc1C` [Compound 1, 5,6-Dimethyl-3-(quinolin-4-yloxy)-[2,2']bipyridine], the inhibition at 3 µM worked out at 100% and the inhibition at 10 µM is 100%.
`Cc1cc(Oc2ccnc3ccc(Br)cc23)c(-c2ccccn2)nc1C` [Compound 2, 3-(6-Bromo-quinolin-4-yloxy)-5,6-dimethyl-[2,2']bipyridine]: the inhibition at 3 µM came to 100% and the inhibition at 10 µM is 100%.
Regarding `Cc1cc(Oc2ccnc3ccc(C(F)(F)F)cc23)c(-c2ccccn2)nc1C` [Compound 3, 5,6-Dimethyl-3-(6-trifluoromethyl-quinolin-4-yloxy)-[2,2']bipyridine], the inhibition at 1 µM was 79% and the inhibition at 3 µM was 99%.
For the molecule `COc1ccc2nccc(Oc3cc(C)c(C)nc3-c3ccccn3)c2c1` [Compound 4, 3-(6-Methoxy-quinolin-4-yloxy)-5,6-dimethyl-[2,2']bipyridine], the inhibition at 1 µM was found to be 94% and the inhibition at 3 µM came out at 100%.
`Cc1cc(Oc2ccnc3ccc(-c4ccccc4)cc23)c(-c2ccccn2)nc1C` [Compound 5, 5,6-Dimethyl-3-(6-phenyl-quinolin-4-yloxy)-[2,2']bipyridine]: the inhibition at 3 µM came out at 79% and the inhibition at 10 µM worked out at 100%.
With `Cc1cc(Oc2ccnc3ccc(-c4cccnc4)cc23)c(-c2ccccn2)nc1C` [Compound 6, 5,6-Dimethyl-3-(6-pyridin-3-yl-quinolin-4-yloxy)-[2,2']bipyridine], the inhibition at 3 µM is 100% and the inhibition at 10 µM worked out at 100%.
Consider `Cc1cc(Oc2ccnc3ccc(-c4ccncc4)cc23)c(-c2ccccn2)nc1C` [Compound 7, 5,6-Dimethyl-3-(6-pyridin-4-yl-quinolin-4-yloxy)-[2,2']bipyridine], for which the inhibition at 3 µM came to 100% and the inhibition at 10 µM was 100%.
Take `Cc1ccc(-c2ccc3nccc(Oc4cc(C)c(C)nc4-c4ccccn4)c3c2)cc1` [Compound 8, 5,6-Dimethyl-3-(6-p-tolyl-quinolin-4-yloxy)-[2,2']bipyridine]: the inhibition at 3 µM was 60% and the inhibition at 10 µM was determined as 100%.
The corresponding values for `Cc1cc(Oc2ccnc3ccc(-c4ccccc4N)cc23)c(-c2ccccn2)nc1C` [Compound 9, 2-[4-(5,6-Dimethyl-[2,2']bipyridin-3-yloxy)-quinolin-6-yl]-phenylamine] are 87% and 100%.
The matching figures for `Cc1cc(Oc2ccnc3ccc(-c4cccc(N)c4)cc23)c(-c2ccccn2)nc1C` [Compound 10, 3-[4-(5,6-Dimethyl-[2,2']bipyridin-3-yloxy)-quinolin-6-yl]-phenylamine]: 100% and 100%.
Regarding `Cc1cc(Oc2ccnc3ccc(-c4cccc(O)c4)cc23)c(-c2ccccn2)nc1C` [Compound 11, 3-[4-(5,6-Dimethyl-[2,2']bipyridin-3-yloxy)-quinolin-6-yl]-phenol], the inhibition at 3 µM is 100% and the inhibition at 10 µM was 100%.
With `Cc1cc(Oc2ccnc3ccc(-c4ccc(O)cc4)cc23)c(-c2ccccn2)nc1C` [Compound 12, 4-[4-(5,6-Dimethyl-[2,2']bipyridin-3-yloxy)-quinolin-6-yl]-phenol], the inhibition at 3 µM came to 100% and the inhibition at 10 µM is 100%.
`Cc1cc(Oc2ccnc3cc(Cl)ccc23)c(-c2ccccn2)nc1C` [Compound 13, 3-(7-Chloro-quinolin-4-yloxy)-5,6-dimethyl-[2,2']bipyridine]: the inhibition at 3 µM came to 99% and the inhibition at 10 µM was found to be 100%.
`Cc1cc(Oc2ccnc3cc(Br)ccc23)c(-c2ccccn2)nc1C` [Compound 14, 3-(7-Bromo-quinolin-4-yloxy)-5,6-dimethyl-[2,2']bipyridine]: the inhibition at 3 µM was found to be 100% and the inhibition at 10 µM stood at 100%.

A word on the inhibition: it is the relative decrease from the control value, in per cent.
